Test results taken from BigSolDB 2.1.

Cc1c(C(=O)O)cccc1[N+](=O)[O-]
solubility (mole fraction)
Conditions | in 1,4-dioxane | in 2-butanone | in acetone | in acetonitrile | in ethanol | in ethyl acetate | in isopropanol | in methanol | in n-propanol
283.15 K | – | 0.0528 | 0.0601 | 0.00849 | 0.0149 | 0.0312 | 0.0129 | 0.0162 | 0.0111
285.65 K | 0.0704 | 0.0544 | 0.0614 | 0.00919 | 0.0165 | 0.0325 | 0.0145 | 0.018 | 0.0127
288.15 K | 0.0718 | 0.056 | 0.0627 | 0.00993 | 0.0186 | 0.0341 | 0.0164 | 0.0202 | 0.0144
290.65 K | 0.0734 | 0.0576 | 0.0641 | 0.0107 | 0.0207 | 0.0357 | 0.0184 | 0.0225 | 0.0162
293.15 K | 0.0749 | 0.0592 | 0.0655 | 0.0117 | 0.0232 | 0.0373 | 0.0206 | 0.0255 | 0.0182
295.65 K | 0.0764 | 0.0609 | 0.0668 | 0.0127 | 0.0259 | 0.039 | 0.023 | 0.0286 | 0.0205
298.15 K | 0.0779 | 0.0626 | 0.0684 | 0.0138 | 0.0286 | 0.0406 | 0.0259 | 0.0319 | 0.0231
300.65 K | 0.0796 | 0.0645 | 0.0699 | 0.0149 | 0.0317 | 0.0423 | 0.0289 | 0.0354 | 0.0258
303.15 K | 0.0814 | 0.0664 | 0.0715 | 0.0161 | 0.0351 | 0.0442 | 0.0324 | 0.0392 | 0.0291
305.65 K | 0.0831 | 0.0683 | 0.0728 | 0.0172 | 0.0388 | 0.046 | 0.0362 | 0.0436 | 0.0326
308.15 K | 0.0847 | 0.0703 | 0.0745 | 0.0186 | 0.043 | 0.0478 | 0.0396 | 0.0483 | 0.0365
310.65 K | 0.0865 | 0.0722 | 0.0761 | 0.0199 | 0.0475 | 0.0499 | 0.0438 | 0.0529 | 0.0404
313.15 K | 0.0884 | 0.0741 | 0.0777 | 0.0211 | 0.0524 | 0.0518 | 0.0485 | 0.0579 | 0.0455
315.65 K | 0.0902 | 0.0764 | 0.0793 | 0.0226 | 0.0579 | 0.054 | 0.0533 | 0.0634 | 0.0506
318.15 K | 0.0921 | 0.0786 | 0.0808 | 0.0242 | 0.064 | 0.056 | 0.0587 | 0.0685 | 0.0556
